The values that follow come from publication PMC12480666, “A robust platform streamlining aromatic noncanonical amino acid biosynthesis and genetic code expansion in Escherichia coli” (Nature Communications, 2025).

Molecules are shown by their SMILES.

The assay addresses T1, TyrB (aromatic amino acid aminotransferase) (Escherichia coli, UniProt P04693).
T1 construct: recombinant, purified from E. coli
T1 sequence (P04693 1-397): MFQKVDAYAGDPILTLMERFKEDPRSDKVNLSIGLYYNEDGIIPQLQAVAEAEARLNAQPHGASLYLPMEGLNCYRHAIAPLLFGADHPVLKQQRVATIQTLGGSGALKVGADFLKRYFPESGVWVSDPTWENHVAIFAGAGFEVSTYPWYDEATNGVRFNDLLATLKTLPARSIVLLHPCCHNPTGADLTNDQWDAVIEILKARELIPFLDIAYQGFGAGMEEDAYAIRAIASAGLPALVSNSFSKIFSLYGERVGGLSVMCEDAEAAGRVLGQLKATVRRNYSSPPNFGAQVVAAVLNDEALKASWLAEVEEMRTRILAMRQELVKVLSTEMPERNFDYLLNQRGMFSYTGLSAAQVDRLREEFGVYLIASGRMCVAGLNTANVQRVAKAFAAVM
The assay can be described thus: in vitro cascade of purified PpLTA, RpTD and TyrB. The note with it: final transamination step. It counts as biochemical.

Take `N[C@@H](Cc1ccc(I)cc1)C(=O)O` [compound 19, p-iodophenylalanine]: the “in vitro cascade of purified PpLTA, RpTD and TyrB” value (from 1 mM para-iodobenzaldehyde) is given as “the enzyme cascade efficiently converted the substrates into their corresponding amino acids”.

In the case of `Cc1ccc(C[C@H](N)C(=O)O)cc1` [p-methylphenylalanine], the “in vitro cascade of purified PpLTA, RpTD and TyrB” value (from 1 mM para-methylbenzaldehyde) was “the enzyme cascade efficiently converted the substrates into their corresponding amino acids”.
